Among the data in ChEMBL document CHEMBL3045414, “Synthesis and evaluation of 2,4,6-trisubstituted pyrimidine derivatives as novel antileishmanial agents” (2013) are inhibition of growth values, retold here.

The subject of this assay is Leishmania donovani. The assay is described as follows: Antileishmanial activity against promastigote stage of Leishmania donovani assessed as parasite growth inhibition at 10 ug/ml after 2 hr by MTT assay relative to control. It counts as functional. Particulars: read-out: GI. On the technique in general: Tetrazolium dyes change colour on reduction, which living cells bring about.
As to `COc1ccc(-c2cc(-c3ccc(-n4ccnc4)cc3)nc(N)n2)cc1`, the inhibition of growth at 10 µg/mL came to 18.1%.
The figure for `Nc1nc(-c2ccc(Br)cc2)cc(-c2ccc(-n3ccnc3)cc2)n1` is 24.3%; for `Nc1nc(-c2ccccc2)cc(-c2ccc(-n3ccnc3)cc2)n1` it is 32.8%.
For `COc1ccc(-c2cc(-c3ccc(-n4cnc5ccccc54)cc3)nc(N)n2)cc1`, the inhibition of growth at 10 µg/mL came to 51.2%.
Then `Nc1nc(-c2ccc(Br)cc2)cc(-c2ccc(-n3cnc4ccccc43)cc2)n1`, with 32.5%; and `Nc1nc(-c2ccc(Cl)cc2)cc(-c2ccc(-n3ccnc3)cc2)n1`, with 46.1%.
The figure for `Nc1nc(-c2ccc(Cl)cc2)cc(-c2ccc(-n3cnc4ccccc43)cc2)n1` is 32.7%.
Then `Nc1nc(-c2ccc(F)cc2)cc(-c2ccc(-n3cnc4ccccc43)cc2)n1`, with 29.6%; and `Nc1nc(-c2ccccc2)cc(-c2ccc(-n3cnc4ccccc43)cc2)n1`, with 41.9%; and `Nc1nc(-c2ccc(-n3cnc4ccccc43)cc2)cc(-c2ccc(Cl)cc2Cl)n1`, with 56.4%.
